The values that follow come from ChEMBL document CHEMBL1156400, “Cedronolactone E, a novel C(19) quassinoid from Simaba cedron” (J Nat Prod, 2001).

Values after ≈ are worked out from the molar mass of the structure shown.

This assay concerns P388. Kind of assay: Cytotoxicity against mouse P388 cells. Format: functional, cell-based.

As a reminder, the IC50 is the midpoint of a concentration-inhibition curve. A high value points to weaker potency. For the compound `C[C@@H]1[C@@H]2[C@@H](O)C(=O)O[C@@H]3C[C@@]4(C)C(=C(O[C@@]5(C)CC(=O)O[C@@H]45)[C@@H]1O)[C@]23CO` [CEDRONOLACTONE E], the half-inhibitory concentration (IC50) is 51 µg/mL (≈ 134 µM).
